Experimental data as given in the METLIN SMRT retention time set (Domingo-Almenara et al. 2019).

Assay: gradient 5% acetonitrile 3 min, to 50% in 2 min, to 85% in 15 min, held 3 min, 100 µL/min
Conditions: column: Zorbax Extend-C18 2.1 x 50 mm; eluents: water / acetonitrile, 0.1% formic acid
Summary of the method: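 Standards, all pure, were combined into mixtures of ~100 molecules and run at 100 μL/min on a Zorbax Extend-C18 column (2.1 × 50 mm, 1.8 μm) with water and acetonitrile, each containing 0.1% formic acid. A coupled quadrupole time-of-flight mass spectrometer operated in positive and negative ionization mode. Retention time values come from computationally picked adduct peaks, each inspected manually.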

| SMILES | RP-LC retention time [s] |
| --- | --- |
| Cn1nccc1C(=O)Nc1c(-c2ccccc2)nc2sc(N3CCCCC3)nn12 | 678 |
| Cc1cccn2cc(C(=O)NCCC(C)C)nc12 | 712 |
| Cc1csc(-c2cc(S(=O)(=O)NCCN3CCOCC3)cn2CC(=O)N2CCCCC2)n1 | 654 |
| COc1ccc2[nH]c(=O)c(CCC(=O)NCc3cccnc3)cc2c1 | 571 |
| COc1ccc(NC(=O)C2CCN(c3nccnc3Sc3ccccc3)CC2)cc1Cl | 1100 |
| COc1ccccc1N1CCN(c2ncccc2-c2nc(-c3ccccc3)no2)CC1 | 1140 |
| COC1CCC12CCN(C(=O)c1c(C)noc1C)CC2 (centres undefined) | 716 |
| O=C(COc1ccc(F)cc1)NCC(=O)N1CCN(c2ccccn2)CC1 | 609 |
| c1ccc(CCc2nc3nccc(-c4ccc5c(c4)OCCCO5)n3n2)cc1 | 984 |
| O=S(=O)(c1ccccc1F)N1CCN(Cc2cccc(F)c2)C2(CCOCC2)C1 | 807 |
| Cc1ncc2c(SCC(=O)Nc3ccc(Br)cc3)ncnc2n1 | 578 |
| COc1cccc(-c2nc3ccccc3n2CC(=O)N2CCC(C)CC2)c1 | 668 |
| CCc1ccc(NC(=O)C2CCCN(c3ncnc4c3nc3n4CCCCC3)C2)cc1 (centres undefined) | 824 |
| Fc1ccc(F)c(-c2nc(-c3ccc(-n4cccn4)nc3)no2)c1 | 1170 |
| CCNC(=O)c1cc(C(C)(C)C)[nH]n1 | 647 |
| COCCN1CC2(CCN(S(=O)(=O)c3ccccc3Cl)CC2)C1c1ccccc1 (centres undefined) | 719 |
| NC(=O)OCCCc1ccccc1 | 817 |
| COc1cc(NC(=O)Nc2c(-c3cccnc3)[nH]c3ccccc23)cc(OC)c1 | 679 |
| Cc1cc(NC(=O)CCCSc2ccc(F)cc2)no1 | 838 |
| COc1ccc(C(O)CN2CCN(c3ccccc3C)CC2)cc1 (centres undefined) | 686 |
| O=C(c1ccc2ccccc2n1)N1CC(n2ccnc2)C1 | 604 |

| SMILES | RP-LC retention time [s] |
| --- | --- |
| O=C(c1n[nH]c2ccccc12)N1CCn2c(nnc2-c2ccccc2)C1 | 664 |
| Cc1ccccc1CNC(=O)Cc1csc2nc(-c3ccccc3)cn12 | 792 |
| O=C(NCCc1csc(-c2ccccc2)n1)C1CCN(C(=O)COc2ccccc2)CC1 | 806 |
| O=C(NCC1CCOCC1)c1cnc(Nc2ccc(Cl)cc2Cl)nc1C(F)(F)F | 997 |
| Cc1ccc(-c2csc(NC(=O)CCCOc3ccc(Cl)cc3)n2)cc1 | 979 |
| C=CCn1nnc(NCc2ccc(-c3cccc(Cl)c3)o2)n1 | 1050 |
| CC1=NS(=O)(=O)N(Cc2ccccc2)C=C1C(=O)OCc1ccc(C)cc1 | 1170 |
| Cc1[nH]c(C)c(S(=O)(=O)N2CCC(C(=O)NC3CCCC3)CC2)c1C(=O)N1CCCC1 | 659 |
| O=C1CCC(C(=O)N2C[C@@H](COCC3CC3)[C@H](c3ccccn3)C2)=NN1 | 583 |
| Cc1ccc(Sc2ccc(N3CCC(C(=O)N4CCN(c5ncccn5)CC4)CC3)nn2)cc1 | 741 |
| O=C(NCC(c1cccnc1)N1CCN(Cc2ccccc2)CC1)Nc1ccccc1Cl (centres undefined) | 554 |
| COc1ccc(-n2ccn3cc(-c4cccs4)nc3c2=O)cc1Cl | 818 |
| COc1ccccc1-c1nc(Cn2nnc(-c3nc(-c4cccs4)no3)c2C)c(C)o1 | 1050 |
| CN1CC=C(c2noc(CCC(=O)N3CCC(c4ccccc4)C3)n2)CC1 (centres undefined) | 631 |
| CCc1nn(C)c(=O)c2cc(S(=O)(=O)NCc3ccccc3)cn12 | 831 |
| O=C(Cc1cccs1)NCc1cccnc1Oc1ccccc1 | 853 |
| O=C(NC1CC1)c1cnn2c(-c3ccccn3)ccnc12 | 687 |
| Cc1nc([N+](=O)[O-])c(N2CCCC2)n1Cc1ccccc1 | 817 |
| COc1ccc(OCC(=O)NCc2cc(-c3cc4ccccc4o3)on2)cc1 | 893 |
| COc1ccc2c(c1)C1(CCN(S(=O)(=O)c3cccs3)C1)C(=O)N2 (centres undefined) | 790 |
| COc1cccc(Oc2nccnc2N2CCC(C(=O)NCCC3=CCCCC3)CC2)c1 | 1050 |

Continued, values first:

| RP-LC retention time [s] | SMILES |
| --- | --- |
| 1180 | Cc1cc(C(=O)Nc2nc(-c3ccccc3)c(-c3ccccc3)s2)no1 |
| 661 | CCc1nc2c(c(=O)n1CC(=O)NCc1ccc(C)cc1)CN(Cc1ccccc1)CC2 |
| 617 | CCn1nnnc1NCc1ccc2c(c1)n(C)c(=O)n2C |
| 904 | CCc1noc(-c2ccnc(-n3ncc(C(=O)N4CCSCC4)c3C)c2)n1 |
| 701 | CNC(=O)c1ccsc1NC(=O)CN1C(=O)c2ccccc2C1=O |
| 917 | COC(=O)c1c(C)c(C(=O)C(C)N(Cc2ccc(F)cc2)C(=O)C2CC2)c(C)n1C (centres undefined) |
| 680 | O=C(NCCC1=CCCCC1)c1ccc(CN2CC(=O)N3CCCCC3C2=O)cc1 (centres undefined) |
| 767 | Cc1ccc(CNC(=O)c2ccc3c(c2)nc2n3CCN(C(C)C)C2=O)cc1C |
| 1150 | CC(/C=C1\SC(=S)N(CC(=O)O)C1=O)=C\c1ccccc1 |
| 584 | COC(=O)c1c(C)[nH]c(C(=O)N2CCCC(C(=O)NCCCN3CCCC3)C2)c1C (centres undefined) |
| 666 | Cc1ncsc1C1N(C2CCN(C(=O)c3ccco3)CC2)C(=O)C12CCCC2 (centres undefined) |
| 1270 | CCOC(=O)c1c(C)oc2nc(C)nc(NCCc3ccc(OCC)cc3)c12 |
| 732 | CCOc1ccc(-c2ccc(=O)n(CCNC(=O)c3ccc(N(C)C)cc3)n2)cc1 |
| 922 | Cc1cc(Cl)ccc1NC(=O)N1C[C@@H]2C[C@H](NS(=O)(=O)c3ccccc3)[C@H]1C2 |
| 1310 | Cn1c(=O)oc2cc(-c3noc(-c4ccc(C(C)(C)C)cc4)n3)ccc21 |
| 669 | O=C(NCC1CCCO1)c1ccc(CN2CCN(Cc3ccccc3)C(=O)C2=O)cc1 (centres undefined) |
| 1120 | CCn1cc(-c2nc(C)c(C(=O)Nc3cc(F)cc(F)c3)s2)c2cccnc21 |
| 866 | CN(Cc1ccccc1)C(=O)c1cc2n(n1)CC(C)(C(=O)NC1CCCCCC1)N(C)C2=O (centres undefined) |
| 983 | Cc1sc(-c2noc(C3CC3)n2)cc1S(=O)(=O)N1CCC(C(=O)NCc2cccs2)CC1 |
| 778 | Cc1ccc(NS(=O)(=O)c2cc3n(c2)CCCN(C(C)C)C3=O)cc1 |
| 670 | CN(C)c1nc2ncn3c(=O)n(CC(=O)Nc4ccccc4)nc3c2s1 |
| 605 | CC(=O)Nc1c(C)nn(-c2ccccc2)c1N1CCC(C(=O)NCCCN2CCCC2=O)CC1 |
| 1310 | Cc1cc(C)c2nc(-c3ccc4ccccc4c3)cc(C(=O)O)c2c1 |
| 747 | O=C([C@@H]1C[C@H](F)CN1C(=O)Nc1cccc(Cl)c1)N1CCCCC1 |

| RP-LC retention time [s] | SMILES |
| --- | --- |
| 1080 | COC(=O)c1cc(S(=O)(=O)N2CCN(c3cccc(C)c3)C(C)C2)c(C)n1C (centres undefined) |
| 1110 | COc1cccc(-c2noc(COC(=O)C3=CN(Cc4ccccc4)S(=O)(=O)N=C3C)n2)c1 |
| 894 | CN(C)c1ccc(-c2nc3cnccn3c2Nc2ccc(Br)cc2)cc1 |
| 686 | Cc1nc(-c2csc(S(=O)(=O)N3CCCC(C(=O)NCc4ccc(N(C)C)cc4)C3)c2)no1 (centres undefined) |
| 614 | CCN(CC)CCCNC(=O)C1CCC(=O)N(c2ccc(OC)cc2)C1c1ccc(F)cc1 (centres undefined) |
| 784 | CC(=O)N1CCCc2cc(S(=O)(=O)CCC(=O)Nc3ccc(C)c(C)c3)ccc21 |
| 944 | Cc1ccc(-n2nnnc2CNC(=O)Nc2ccc(Cl)c(Cl)c2)cc1C |
| 596 | CN(C)c1ccc(O)c2c1C[C@H]1C[C@H]3[C@H](N(C)C)C(=O)C(C(N)=O)=C(O)[C@@]3(O)C(=O)C1=C2O |
| 669 | CC(=O)OCc1cc(=O)n(C)c2c3c4c(cc12)c(C)cc(=O)n4CO3 |
| 1080 | Cc1cccc(-n2c(N3CCCC(C(=O)Nc4ccc(Cl)cc4)C3)nc3ccsc3c2=O)c1 (centres undefined) |
| 795 | COc1ccc2[nH]cc(CCNC(=O)CCCn3c4ccccc4c4cnn(C)c(=O)c43)c2c1 |
| 810 | COCCN1C(=O)c2ccccc2C(C(=O)Nc2nc(C)cs2)C12CCCCC2 (centres undefined) |
| 807 | Cc1ccc(NC(=O)N2C[C@@H](F)C[C@H]2C(=O)N2CCc3ccccc3C2)cc1 |
| 610 | CN(C)c1ccc(CNC(=O)CCCN2C(=O)CCn3nc(-c4cccn4C)cc32)cc1 |
| 1100 | CCOC(=O)c1noc2nc(C)nc(NCc3ccccc3OC)c12 |
| 950 | COc1ccccc1NC(=O)N1CCCC1c1cc(C(C)C)on1 (centres undefined) |
| 767 | CCOc1ccc(C(=O)N2CCC3(CC2)NC(=O)c2cc(F)ccc2N3C)cc1 |
| 687 | COc1ccc(NC(=O)CSc2nccc3c2ccn3C)c(OC)c1 |
| 1290 | COc1cc(NC(=O)C2CCCN(c3nc4ccccc4nc3OC)C2)c(OC)cc1Cl (centres undefined) |
| 797 | CN(Cc1ccoc1)C(=O)Nc1ccc(F)cc1 |
| 1000 | Cc1c(S(=O)(=O)NCc2ccccc2Cl)c(C)n(C)c1-c1nnc(C2CCC2)o1 |
| 873 | CCOC(=O)c1ccc(NC(=O)C2CCCN(c3ncnc4c3nc3n4CCCCC3)C2)cc1 (centres undefined) |
| 785 | COc1nccnc1N1CCC(N(C)C(=O)c2ccc(C)s2)C1 (centres undefined) |
